Like-named read-outs stand apart in the source and are kept apart here.
Legend:
HepG2 = system: HepG2; design: method as in Albrecht 2019; settings: In vitro Assay; ref Albrecht 2019; cited from earlier work
[1] = cited from earlier work
HepG2 cells [2] = settings: cited from earlier work
HepG2 cells [3] = settings: cited from earlier work; remark: listed apart in the source
human hepatocytes = settings: cited from earlier work
[4] = system: THLE or HepG2 cells, isolated mitochondria, BSEP; settings: cited from earlier work
PHH [5] = settings: cited from earlier work
hLiMTs [6] = settings: cited from earlier work
PHH spheroids = settings: cited from earlier work
[7] = system: HepG2 C3A spheroid, BSEP, Glu/Gal in HepG2 cells, bioactivation; settings: cited from earlier work
[8] = cited from earlier work; remark: listed apart in the source
PHH [9] = settings: In vitro Assay; ref Albrecht 2019; cited from earlier work
hu-MPCC = settings: In vitro Assay; ref Khetani 2012; cited from earlier work
[10] = system: HepG2 cells, primary human hepatocytes; settings: In vitro Assay; ref Garside 2014; cited from earlier work
[11] = ref Chen 2011; cited from earlier work
rBsep [12] = settings: In vitro Assay; ref Dawson 2012; cited from earlier work
RMPCC's = settings: In vitro Assay; ref Khetani 2012; cited from earlier work
hLiMTs [13] = assay: Combined HCI (HCS) and cellular ATP 3D assay in hLiMTs
HepaRG spheroids = assay: Combined HCI (HCS) and cellular ATP 3D assay in HepaRG spheroids
rBsep [14] = system: rBsep; design: method as in Dawson 2012; settings: In vitro Assay; ref Dawson 2012; cited from earlier work
[15] = In vitro Assay, ref Persson 2013
[16] = Modeled in vitro assays (cytotoxicity, mitochondrial dysfunction, BSEP), ref Aleo et al. 2019
[17] = In vitro Assay, ref Proctor 2017
[18] = Microtissue model structural based (HCI), combined HCS and ATP, MEC < 25 × Cmax.tot cut-off

For `O=C1CC2(CCCC2)CC(=O)N1CCCCN1CCN(c2ncccn2)CC1` [buspirone, reference compound], which “Cytotoxicity HepG2 48 hrs” value (HepG2) is on record?
The value was “-VE”.

What about the “DILI severity category (Chen et al. [2016])” value ([1]; LTKB DILIrank category, ref Chen et al. 2016) of the same molecule?
Its value is “Ambiguous”.

And the “DILI severity category (Chen 2016)” value ([1]; human DILI classification, LTKB DILIrank, ref Chen et al. 2016)?
The value was “Ambiguous”.

And the DILI severity category ([1]; human DILI severity, ref Chen et al.)?
Its DILI severity category is “Ambiguous”.

What about the “DILI +VE (5-8), DILI -VE (-4)” value ([1]; ref Chen 2016) of the same molecule?
Its value is “-VE”.

And the DILI severity category ([1]; ref Chen 2016)?
The DILI severity category was “Ambiguous DILI-concern”.

And the “Structural based (HCI)” value (HepG2 cells [2]; In vitro Assay, ref O'Brien 2006)?
Its value is “-VE”.

And the “DILI in vitro assay prediction, O'Brien (2006)” value (HepG2 cells [2]; Structural based (HCI), HepG2, ref O'Brien et al. 2006)?
Its value is “-VE”.

What about the Cluser analysis (HepG2 cells [3]; [15]) of the same molecule?
Its Cluser analysis is “-VE”.

What about the “Structural based (HCI)” value (HepG2 cells [3]; [15]) of the same molecule?
The value was “-VE”.

And the “DILI in vitro assay prediction, Persson (2013)” value (HepG2 cells [3]; Structural based (HCI), HepG2, ref Persson et al. 2013)?
The value was “-VE”.

And the “Structural based (HCI)” value (human hepatocytes; In vitro Assay, ref Xu 2008)?
The value was “-VE”.

And the “DILI in vitro assay prediction, Xu (2008)” value (human hepatocytes; Structural based (HCI), human hepatocytes, ref Xu et al. 2008)?
Its value is “-VE”.

And the “Ro2 Hybrid HRM Score” value ([4]; In vitro Assay, ref Aleo 2019)?
Its value is “-VE”.

And the “Rule of Two hybrid HRM Score ≥3, Aleo (2019)” value [4, 16]?
Its value is “-VE”.

And the “Rule of Two hybrid HRM Score ≥8, Aleo (2019)” value [4, 16]?
Its value is “-VE”.

And the “PHH/100uM, Proctor (2017)” value (PHH [5]; 2D PHH, ATP, IC50 threshold 100 µM, ref Proctor et al. 2017)?
Its value is “-VE”.

What about the “PHH ATP <100uM” value (PHH [5]; [17]) of the same molecule?
The value was “-VE”.

And the “hLiMTs ATP <100uM” value (hLiMTs [6]; [17])?
Its value is “-VE”.

What about the “hLiMTs/100uM, Proctor (2017)” value (hLiMTs [6]; hLiMTs, ATP, IC50 threshold 100 µM, ref Proctor et al. 2017) of the same molecule?
Its value is “-VE”.

And the “hLiMTs ATP <20 x Cmax” value (PHH spheroids; In vitro Assay, ref Vorrink 2018)?
Its value is “-VE”.

And the “DILI in vitro assay prediction, Vorrink (2018)” value (PHH spheroids; PHH spheroids, ATP, 14 days, IC20 < 20 × Cmax.tot, ref Vorrink et al. 2018)?
Its value is “-VE”.

What about the “Bayesian Machine Learning DILI prediction, Williams (2019)” value ([7]; Bayesian modeling, ref Williams et al. 2019) of the same molecule?
Its value is “-VE”.

And the “Bayesian Machine Learning” value ([7]; In vitro Assay, ref Williams 2019)?
Its value is “-VE”.

And the “Assigned DILI category” value ([8]; Chen et al. 2016 or literature alignment, ref Chen et al. 2016)?
The value was 1.

And the “In vivo DILI” value ([8]; […])?
Its value is “-VE”.

And the “In vivo DILI” value ([8]; ref Albrecht 2019)?
The value was “-VE”.

And the “In vivo DILI” value ([8]; ref Dawson 2012)?
The value was “-VE”.

What about the “In vivo DILI” value ([8]; ref Garside 2014) of the same molecule?
The value was “-VE”.

What about the “In vivo DILI” value ([8]; ref Gustafsson 2014) of the same molecule?
Its value is “-VE”.

And the “In vivo DILI” value ([8]; ref Khetani 2012)?
The value was “-VE”.

And the “In vivo DILI” value ([8]; ref O'Brien 2006)?
The value was “-VE”.

What about the “In vivo DILI” value ([8]; ref Persson 2013) of the same molecule?
Its value is “-VE”.

What about the “In vivo DILI” value ([8]; ref Proctor 2017) of the same molecule?
Its value is “-VE”.

What about the “In vivo DILI” value ([8]; ref Schadt 2015) of the same molecule?
The value was “-VE”.

What about the “In vivo DILI” value ([8]; ref Vorrink 2018) of the same molecule?
Its value is “-VE”.

What about the “In vivo DILI” value ([8]; ref Williams 2019) of the same molecule?
The value was “-VE”.

And the “In vivo DILI” value ([8]; ref Xu 2008)?
The value was “-VE”.

And the “Cytotoxicity PHH 48 hrs” value (PHH [9])?
The value was “-VE”.

And the “HMPCC's” value (hu-MPCC)?
Its value is “-VE”.

What about the “Cluster 1-6 +VE Assay” value [10] of the same molecule?
Its value is “+VE”.

What about the “DILI Score (FDA) (1-8)” value [11] of the same molecule?
The value was 3.

What about the “Inhibition of rBsep cutoff<1& cmax u>.2” value (rBsep [12]) of the same molecule?
Its value is “-VE”.

And the “Inhibition of rBsep cutoff<3” value (rBsep [12])?
The value was “-VE”.

And the “RMPCC's” value (RMPCC's)?
The value was “-VE”.

What about the AC50 (hLiMTs [13]; Homo sapiens, read-out: ATP endpoint AC50) of the same molecule?
Its AC50 is 5.15 µM.

And the minimal effective concentration (hLiMTs [13]; Homo sapiens, read-out: ATP endpoint MEC)?
The minimal effective concentration was 3.12 µM.

What about the “DILI prediction hLiMTs (HCS-MEC)” value (hLiMTs [13]; [18]) of the same molecule?
The value was “-VE”.

And the “hLiMTs <25x Avg Cmax ATP” value (hLiMTs [13]; hLiMTs, ATP endpoint, cut-off <25x Avg Cmax)?
Its value is “-ve”.

And the “hLiMTs <100x Avg Cmaxu ATP” value (hLiMTs [13]; hLiMTs, ATP endpoint, cut-off <100x Avg Cmaxu)?
The value was “-ve”.

What about the “hLiMTs <25x Avg Cmax HCS” value (hLiMTs [13]; hLiMTs, HCS endpoints, cut-off <25x Avg Cmax) of the same molecule?
Its value is “-ve”.

What about the “hLiMTs <100x Avg Cmaxu HCS” value (hLiMTs [13]; hLiMTs, HCS endpoints, cut-off <100x Avg Cmaxu) of the same molecule?
Its value is “-ve”.

What about the “hLiMTs <25x Avg Cmax All” value (hLiMTs [13]; hLiMTs, all endpoints (ATP and HCS), cut-off <25x Avg Cmax) of the same molecule?
The value was “-ve”.

What about the “hLiMTs Cmax max All” value (hLiMTs [13]; hLiMTs, all endpoints, Cmax max used) of the same molecule?
The value was “-ve”.

And the “hLiMTs Cmax min All” value (hLiMTs [13]; hLiMTs, all endpoints, Cmax min used)?
The value was “-ve”.

What about the “hLiMTs <10 uM All” value (hLiMTs [13]; hLiMTs, all endpoints, cut-off <10 uM) of the same molecule?
The value was “+ve (<10 uM)”.

What about the “hLiMTs <100x Avg Cmaxu All” value (hLiMTs [13]; hLiMTs, all endpoints, cut-off <100x Avg Cmaxu) of the same molecule?
Its value is “-ve”.

What about the “HepaRG <25x Avg Cmax ATP” value (HepaRG spheroids; HepaRG, ATP endpoint, cut-off <25x Avg Cmax) of the same molecule?
Its value is “-ve”.

What about the “HepaRG <100x Avg Cmaxu ATP” value (HepaRG spheroids; HepaRG, ATP endpoint, cut-off <100x Avg Cmaxu) of the same molecule?
The value was “-ve”.

And the “HepaRG <25x Avg Cmax HCS” value (HepaRG spheroids; HepaRG, HCS endpoints, cut-off <25x Avg Cmax)?
The value was “-ve”.

What about the “HepaRG <100x Avg Cmaxu HCS” value (HepaRG spheroids; HepaRG, HCS endpoints, cut-off <100x Avg Cmaxu) of the same molecule?
Its value is “-ve”.

What about the “HepaRG <25x Avg Cmax All” value (HepaRG spheroids; HepaRG, all endpoints (ATP and HCS), cut-off <25x Avg Cmax) of the same molecule?
Its value is “-ve”.

And the “HepaRG Cmax max All” value (HepaRG spheroids; HepaRG, all endpoints, Cmax max used)?
The value was “-ve”.

And the “HepaRG Cmax min All” value (HepaRG spheroids; HepaRG, all endpoints, Cmax min used)?
Its value is “-ve”.

What about the “HepaRG <10 uM All” value (HepaRG spheroids; HepaRG, all endpoints, cut-off <10 uM) of the same molecule?
The value was “-ve”.

What about the “HepaRG <100x Avg Cmaxu All” value (HepaRG spheroids; HepaRG, all endpoints, cut-off <100x Avg Cmaxu) of the same molecule?
Its value is “-ve”.

And the “DILI prediction HepaRG spheroids (HCS-MEC)” value (HepaRG spheroids; [18])?
Its value is “-VE”.

What does the source list for `Cc1onc(-c2ccccc2Cl)c1C(=O)N[C@@H]1C(=O)N2[C@@H]1SC(C)(C)[C@@H]2C(=O)O` [cloxacillin]?
Inhibition of rBsep cutoff<1& cmax u>.2 (rBsep [14]): -VE; Inhibition of rBsep cutoff<3 (rBsep [14]): -VE
